From a melting point compilation (Tetko et al.; mined from patent text by program, amines drawn as free bases though some values may be those of a salt)

SMILES | melting point [°C]
C=CCNCC(COc1cccc2c1CC(=O)N2)OC(=O)C12CC3CC(CC(C3)C1)C2 (stereo not given) | 170 to 172
CCCc1nc2c(N)nc3ccccc3c2n1CCC(OCC)OCC | 148 to 150
O=C(NC(=O)c1ccc(F)cc1Cl)Nc1ccc(OC(F)(F)C(F)Cl)c(Cl)c1 (stereo not given) | 186
O=C(O)CC=C(c1ccccc1)c1ccc(F)cc1 | 98 to 100
CCCCc1ccc(CC(Cl)C(=O)O)cc1 (stereo not given) | 52.7 to 53.6
NC(=O)c1ncccc1CCc1cccc(F)c1 | 102 to 104
Cc1cc(SCCSCC(=O)O)ccc1O | 86
CC(=O)c1ccc(Cc2cn(-c3ccc(F)cc3)c3ncccc3c2=O)cc1 | 227 to 229
CCOC(=O)c1cnn2c(-c3ccsc3)ccnc12 | 129 to 130
CCOC(=O)c1cc2ccc(Cl)c(NS(=O)(=O)c3cccs3)c2[nH]1 | 191 to 192
O=Cc1coc2cc(OC(=O)OCC(Cl)(Cl)Cl)c(OC(=O)OCC(Cl)(Cl)Cl)cc2c1=O | 153 to 155
COc1cc2ncc(C#N)c(Oc3cccc(Br)c3)c2cc1OC | 187 to 190
NC(=S)c1cn(C2OC(CO)C(O)C2O)nn1 (stereo not given) | 152 to 154
CC(C)(OCc1coc(-c2ccc(Cl)cc2)n1)C(=O)O | 144 to 145
O=[N+]([O-])c1oc2ccc(CN3CCN(c4ccccc4)CC3)cc2c1-c1ccccc1 | 155 to 157
Brc1ccc2c(c1)c1cc(Br)ccc1n2-c1ccccc1 | 163 to 164
COc1ccc(F)c2c(OC)c(C=O)ccc12 | 129 to 131
COc1cc(C(C)=O)ccc1OCCCN1CCC(=C(c2ccc(Cl)cc2)c2ccc(Cl)cc2)CC1 | 143 to 144

The remaining lines, values ahead:

melting point [°C] | SMILES
118 to 120 | O=C(O)c1ccccc1OCCN1CCC(c2cn(CCC3OCCO3)c3ccccc23)CC1
117 to 118 | C=CCn1nc(-c2sc(C(=O)NCc3ccccn3)nc2-c2ccccc2)ccc1=O
77 to 79 | Cc1nc2ccccc2n1Cc1ccc(C(=O)NC2CCN(C(=O)OC(C)(C)C)CC2)cc1
125 | COc1ccc2ccc(OC)c3c2c1CCC3CCNC(C)=O (stereo not given)
148 to 149 | CC(C)(C)OC(=O)Nc1ccc(I)cc1
188 to 190 | CC(C)(C)c1ccc(Sc2cccc(C=C3SC(=S)NC3=O)c2)cc1
150 to 155 | COc1ccc(C(=O)C(=O)c2ccc(OC(F)F)cc2)cc1C#N
106 | COc1ccc(Cn2ccn(CC(=O)c3ccc(OC)c(OC4CCCC4)c3)c2=O)cc1
147 | Cc1nccc(N2CCN(C(=O)c3ccccc3)CC2)n1
66 to 68 | c1cc(N2CCCCC2)ccc1OC12CCC(CC1)CC2
140 to 144 | CC(C)C(O)c1cc2ccncc2[nH]1 (stereo not given)
209 to 211 | COCCNS(=O)(=O)c1ccc(C(CC2CCCC2)C(=O)Nc2nc3ccc(OC)nc3s2)cc1 (stereo not given)
244 to 245 | Nc1nnc(-c2ccc3ncn(-c4cccc(C(F)(F)F)c4)c3c2)o1
176 to 180 | CCCCc1nc2c(n1Cc1ccc(C(=O)OC)cc1)C[C@@H](C(=O)O)N(C(=O)C(c1ccccc1)c1ccccc1)C2
238 | Cc1cc(-c2ccc(C(F)(F)F)nc2)nc(-c2cccc(-c3ccc(S(N)(=O)=O)s3)c2)n1
200 to 205 | CSC1=NC(C)(C)CCC(C)(C)N1
130 to 131 | CCOC(=O)Nc1sc(-c2ccc([N+](=O)[O-])cc2)c(C)c1C(=O)OCC
207 | O=C(Nc1cccc(S(=O)(=O)C(F)(F)F)c1)c1cnn2c(C(F)(F)F)cc(-c3ccc(C(F)(F)F)cc3)nc12
57.5 to 58.5 | CCCC(=O)COS(=O)(=O)c1c(C)cc(C)cc1C
196 to 198 | CN(C)C(=O)c1ccc(C(=O)Nc2cccc3cc(Br)cnc23)cc1
154 to 155 | O=C(O)c1cnn(-c2ccc(Cl)cc2Cl)c1C(F)(F)F
188 | CC(C)(C)OC(=O)NCCCCC(=O)Nc1cccc(C(=O)O)c1
